Measured values as given in paper PMC11091072, “Targeting bacterial nickel transport with aspergillomarasmine A suppresses virulence-associated Ni-dependent enzymes” (Nature Communications, 2024).
Several values for one entry are separate records, joined by “and”; a condition that tells them apart may be missing. Equal values may be shown once. Read-outs that look alike come from different tables or passages of the source.

Experiments:
[1] = Competitive ITC of AMA, Zn2+ and Ni2+ (Ni2+ affinity of AMA); format: binding; conditions: competition ITC, 25 mM Tris-HCl, 150 mM NaCl, pH 7.5, 37 °C; estimated; read-out: KD for Ni^2+
AMA affinity for Zn2+ = format: binding; conditions: PAR-based competition assay, authors' reply to reviewer; read-out: Kd for Zn (typical drift)
[2] = system: [NiFe]-hydrogenase (Hyd-3); experiment: Whole-cell [NiFe] hydrogenase assay (benzyl viologen reduction); format: cell-based, Klebsiella pneumoniae; set-up: Benzyl viologen hydrogenase assay (activity): unit not given here
Description: We reasoned that disruption of Ni^2+ uptake and homeostasis should also perturb the activity of other Ni-dependent enzymes. To examine this possibility, we tested the effects of free AMA and Zn-AMA on Ni-dependent hydrogen metabolism in bacteria. […] K. pneumoniae produces a single [NiFe]-hydrogenase (Hyd-3) as part of the H2-evolving formate hydrogenlyase (FHL) complex and is encoded by the hyc operon (Fig S8)[21]. […] To measure [NiFe]-hydrogenase-catalyzed H2 […], benzyl viologen was used as an artificial electron acceptor, as previously described. Although Hyd-3 is involved in the evolution of H2, previous work in E. coli has shown that it is responsible for 90% of the hydrogen-dependent benzyl viologen reduction in crude extracts and whole-cell assays[41]–[44].
The whole-cell hydrogenase activity in K. pneumoniae was based on a modified method described by Lacasse et al.[41] […] The cell suspension was diluted 1/100 in LB supplemented with 0.8% glucose, 10 mM MgCl2, and 10 mM potassium phosphate, pH 7.2. […] Following an 18-hour incubation, whole-cell [NiFe] hydrogenase activity was monitored by adding benzyl viologen (1 mg/mL) to each well, followed by continuous monitoring of the change in absorbance at 630 nm using a BioTek Synergy H1 microplate reader in an anaerobic glove box.

K. pneumoniae [3] = format: cell-based, Klebsiella pneumoniae
K. pneumoniae [4] = format: cell-based, Klebsiella pneumoniae; conditions: 200 μM, 24 h exposure
[5] = read-out: KD for Zn^2+; cited from earlier work
K. pneumoniae biofilm = experiment: Polystyrene microtiter biofilm assay (crystal violet); format: cell-based, Klebsiella pneumoniae
Protocol: Biofilm assays to assess the effect of Zn-AMA were adapted from a previously described method. Overnight cultures of K. pneumoniae or S. aureus USA300 were diluted in sterile saline (NaCl, 0.9% w/v) to an OD600 of 0.1 and diluted 1/200 in either M9-Cas, or artificial urine. Two-fold dilutions of Zn-AMA were added to the cells in a 96-well round-bottom microtiter plate, and the cells were grown at 37 °C for 18 hours in a static incubator. […] The biofilms were washed three times with deionized water, air-dried, and stained with 0.1% crystal violet for 15 min. Excess crystal violet was removed, the plates were washed with deionized water three times, and they were air-dried for 1 hour. […] Experiments were performed in four replicates, and absorbance measurements were performed in a BioTek Synergy H1 plate reader.

S. aureus biofilm = experiment: as above; format: cell-based, Staphylococcus aureus USA300; conditions: artificial urine or M9
Protocol: Biofilm assays to assess the effect of Zn-AMA were adapted from a previously described method. Overnight cultures of K. pneumoniae or S. aureus USA300 were diluted in sterile saline (NaCl, 0.9% w/v) to an OD600 of 0.1 and diluted 1/200 in either M9-Cas, or artificial urine. Two-fold dilutions of Zn-AMA were added to the cells in a 96-well round-bottom microtiter plate, and the cells were grown at 37 °C for 18 hours in a static incubator. Following incubation, the microtiter plates were agitated on an orbital shaker (300 rpm, 2 min), the planktonic cells were transferred to a fresh plate, and their OD600 was quantified. The biofilms were washed three times with deionized water, air-dried, and stained with 0.1% crystal violet for 15 min. Excess crystal violet was removed, the plates were washed with deionized water three times, and they were air-dried for 1 hour. The crystal violet-stained biofilms were solubilized in 33% acetic acid (100 μL) for 5 min, and the absorbance (600 nm) was measured. Experiments were performed in four replicates, and absorbance measurements were performed in a BioTek Synergy H1 plate reader.

NikA [6] = format: binding, Klebsiella pneumoniae; conditions: 100 μM
NikA [7] = target: NikA (Klebsiella pneumoniae, UniProt A6TFA3); format: binding
NikA (Klebsiella pneumoniae, UniProt A6TFA3), sequence (A6TFA3 entry or part of it): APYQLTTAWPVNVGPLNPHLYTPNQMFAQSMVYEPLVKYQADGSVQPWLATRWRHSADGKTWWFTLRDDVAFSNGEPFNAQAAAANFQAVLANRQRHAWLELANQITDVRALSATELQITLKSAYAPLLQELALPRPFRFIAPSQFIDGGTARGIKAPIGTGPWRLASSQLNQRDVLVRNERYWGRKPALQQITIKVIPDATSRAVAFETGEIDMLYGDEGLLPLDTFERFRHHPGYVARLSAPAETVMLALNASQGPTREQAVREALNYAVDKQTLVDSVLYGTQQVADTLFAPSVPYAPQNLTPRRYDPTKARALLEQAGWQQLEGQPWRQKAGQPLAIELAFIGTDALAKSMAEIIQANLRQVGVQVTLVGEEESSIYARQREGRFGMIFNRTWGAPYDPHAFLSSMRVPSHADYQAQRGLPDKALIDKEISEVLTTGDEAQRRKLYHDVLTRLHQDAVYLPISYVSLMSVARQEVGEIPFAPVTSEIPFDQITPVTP

[8] = Chelex-treated nitrogen-limited medium

## N[C@@H](CN[C@@H](CN[C@@H](CC(=O)O)C(=O)O)C(=O)O)C(=O)O [AMA, aspergillomarasmine A]
[1]
  Kd: ~0.08 nM and 0.08 nM
AMA affinity for Zn2+
  Kd: 0.1 to 0.2 nM
[2]; 1.5625 μM
  Benzyl viologen hydrogenase assay (activity): 10.01 and 8.89
[2]; 3.125 μM
  Benzyl viologen hydrogenase assay (activity): 10.26 and 7.90
[2]; 6.25 μM
  Benzyl viologen hydrogenase assay (activity): 10.55 and 8.44
[2]; 12.5 μM
  Benzyl viologen hydrogenase assay (activity): 10.31 and 8.59
[2]; 25 μM
  Benzyl viologen hydrogenase assay (activity): 10.36 and 8.93
[2]; 50 μM
  Benzyl viologen hydrogenase assay (activity): 9.47 and 8.79
[2]; 100 μM
  Benzyl viologen hydrogenase assay (activity): 9.67 and 7.85
[2]; 200 μM
  Benzyl viologen hydrogenase assay (activity): 9.18 and 9.08
[2]; 400 μM
  Benzyl viologen hydrogenase assay (activity): 9.38 and 7.95
[2]; LB-glucose, anaerobic, whole cell
  effect on [NiFe]-hydrogenase activity: no impact on [NiFe]-hydrogenase activity
K. pneumoniae [3]
  Growth of K. pneumoniae with urea as a sole nitrogen source (OD600): 1.19
K. pneumoniae [3]; 15.15 h, 50 μM
  Growth curve (culture density): 0.165 and 0.162
K. pneumoniae [3]; 16.15 h, 50 μM
  Growth curve (culture density): 0.186 and 0.183
K. pneumoniae [3]; 17.15 h, 50 μM
  Growth curve (culture density): 0.218 and 0.214
K. pneumoniae [3]; [8]
  growth with urea as sole nitrogen source: not viable
K. pneumoniae [4]
  bacterial viability (spot dilutions): do not affect bacterial viability
[5]
  Kd: 0.2 nM

## N[C@@H](CN[C@@H](CN[C@@H](CC(=O)O)C(=O)O)C(=O)O)C(=O)O.[Zn+2] [Zn-AMA]
K. pneumoniae biofilm; 1.56 μM, artificial urine
  Biofilm (A595), crystal violet: 0.659 and 0.666 and 0.436 and 0.533
  Planktonic (A595): 0.141 and 0.142 and 0.148 and 0.16
K. pneumoniae biofilm; 3.12 μM, artificial urine
  Biofilm (A595), crystal violet: 0.633 and 0.585 and 0.45 and 0.471
  Planktonic (A595): 0.147 and 0.142 and 0.13 and 0.155
K. pneumoniae biofilm; 6.2 μM, artificial urine
  Planktonic (A595): 0.194 and 0.11 and 0.126 and 0.129
K. pneumoniae biofilm; 12.5 μM, artificial urine
  Planktonic (A595): 0.177 and 0.124 and 0.113 and 0.167
K. pneumoniae biofilm; 25 μM, artificial urine
  Planktonic (A595): 0.165 and 0.136 and 0.151 and 0.152
K. pneumoniae biofilm; 50 μM, artificial urine
  Planktonic (A595): 0.165 and 0.152 and 0.157 and 0.154
K. pneumoniae biofilm; 100 μM, artificial urine
  Planktonic (A595): 0.171 and 0.148 and 0.158 and 0.166
K. pneumoniae biofilm; 200 μM, artificial urine
  Planktonic (A595): 0.167 and 0.176 and 0.175 and 0.166
K. pneumoniae biofilm; M9 minimal medium
  effect on biofilm production: biofilms were unperturbed
K. pneumoniae biofilm; artificial urine
  effect on biofilm production: completely suppress biofilm production
S. aureus biofilm
  effect on biofilm production: anti-biofilm activity was not observed
[2]; 1.5625 μM
  Benzyl viologen hydrogenase assay (activity): 9.43 and 9.72
[2]; 3.125 μM
  Benzyl viologen hydrogenase assay (activity): 9.23 and 9.47
[2]; 6.25 μM
  Benzyl viologen hydrogenase assay (activity): 8.98 and 9.82
[2]; 12.5 μM
  Benzyl viologen hydrogenase assay (activity): 9.03 and 8.64
[2]; 25 μM
  Benzyl viologen hydrogenase assay (activity): 7.51 and 6.87
[2]; 50 μM
  Benzyl viologen hydrogenase assay (activity): 5.01 and 4.71
[2]; 100 μM
  Benzyl viologen hydrogenase assay (activity): 2.11
[2]; 200 μM
  Benzyl viologen hydrogenase assay (activity): 0.69 and 0.39
[2]; read-out: EC50, Hyd-3 [NiFe]-hydrogenase inhibition, LB-glucose, anaerobic, whole cell, benzyl viologen
  EC50: 50800 ± 4400 nM
K. pneumoniae [3]
  Growth curve (culture density): 0.101 and 0.102 and 0.103 and 0.104 and 0.105 and 0.107 and 0.106 and 0.108
K. pneumoniae [3]; 15.15 h, 50 μM
  Growth curve (culture density): 0.107 and 0.104
K. pneumoniae [3]; 16.15 h, 50 μM
  Growth curve (culture density): 0.107 and 0.103
K. pneumoniae [3]; 17.15 h, 50 μM
  Growth curve (culture density): 0.107 and 0.102
K. pneumoniae [3]; [8]
  growth with urea as sole nitrogen source: did not
K. pneumoniae [3]; medium supplemented with 0.25 μM NiCl
  growth with urea as sole nitrogen source: inhibited the growth of K. pneumoniae
NikA [6]
  effect on stability of recombinant NikA: increase NikA’s stability
NikA [7]
  fold greater KD (weaker affinity) relative to Ni-(L-His)2: 14 fold
NikA [7]; 37 °C, pH 7.5
  n (stoichiometry, ITC): 0.78
  ∆G: -7.3 kcal/mol
  ∆H: -11.6 kcal/mol
  −T∆S: 4.3 kcal/mol
NikA [7]; read-out: KD for NikA (ITC), 25 mM Tris-HCl, 150 mM NaCl, 0.1% Triton X-100, pH 7.5, 37 °C
  Kd: 6800 ± 400 nM
K. pneumoniae [4]
  bacterial viability (spot dilutions): do not affect bacterial viability
